This assay addresses T1, KIF18A (Homo sapiens, UniProt Q8NI77).
T1 sequence (Q8NI77 1-898): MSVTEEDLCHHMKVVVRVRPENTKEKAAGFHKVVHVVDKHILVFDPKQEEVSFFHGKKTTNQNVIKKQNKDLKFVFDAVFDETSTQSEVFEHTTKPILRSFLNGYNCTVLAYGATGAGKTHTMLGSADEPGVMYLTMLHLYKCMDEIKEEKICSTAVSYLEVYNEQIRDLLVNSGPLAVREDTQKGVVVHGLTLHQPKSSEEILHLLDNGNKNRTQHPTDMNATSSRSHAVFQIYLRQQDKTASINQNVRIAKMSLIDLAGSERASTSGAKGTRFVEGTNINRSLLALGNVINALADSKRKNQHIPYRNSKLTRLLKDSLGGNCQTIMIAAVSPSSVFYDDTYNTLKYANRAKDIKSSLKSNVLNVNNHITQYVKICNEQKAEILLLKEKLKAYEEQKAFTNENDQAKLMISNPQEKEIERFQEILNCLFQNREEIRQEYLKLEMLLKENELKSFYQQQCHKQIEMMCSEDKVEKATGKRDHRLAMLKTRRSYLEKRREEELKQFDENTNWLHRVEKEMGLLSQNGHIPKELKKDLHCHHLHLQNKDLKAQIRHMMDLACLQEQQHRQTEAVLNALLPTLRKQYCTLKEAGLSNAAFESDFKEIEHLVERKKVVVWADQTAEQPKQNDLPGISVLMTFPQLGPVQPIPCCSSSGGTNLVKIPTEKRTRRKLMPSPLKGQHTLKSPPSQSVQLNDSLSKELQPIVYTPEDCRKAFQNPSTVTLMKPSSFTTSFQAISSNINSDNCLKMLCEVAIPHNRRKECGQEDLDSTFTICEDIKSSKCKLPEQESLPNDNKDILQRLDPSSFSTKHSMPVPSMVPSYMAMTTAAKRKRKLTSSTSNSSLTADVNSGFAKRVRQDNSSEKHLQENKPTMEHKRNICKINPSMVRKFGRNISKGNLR
Nature of the assay: KIF18A enzyme inhibition activity assay (ADP-Glo). In kind it is biochemical. To be noted: ADP-Glo kit, porcine tubulin, ATP; 10 concentration points, 3-fold serial dilution; 25°C. As to the method: Embodiment 6: Biological example: KIF18A enzyme inhibition activity assay
2) Steps: • 2.1 Preparation of enzyme protein buffer solution • 2.2 Activity screening • a) 40 µL of compound solution was added to a 384-well dilution plate; • b) A 3-fold serial dilution was performed to obtain 10 concentration points; • c) 0.1 µL of compound solution was transferred into a 384-well plate; • d) 5 µL of enzyme reaction solution was added and centrifuged at 1,000 RPM for 1 minute; • e) The reaction took place at 25°C for 15 minutes; • f) 5 µL of ATP reaction solution was added; • g) The reaction took place at 25°C for 60 minutes; • h) 10 µL of ADP-Glo reagent was added and centrifuged at 1,000 RPM for 1 minute; • i) The reaction took place at 25°C for 60 minutes; • j) 20 µL of detection reagent was added and centrifuged at 1,000 RPM for 1 minute; • k) The reaction took place at 25°C for 60 minutes; • l) The Envision 2104 plate reader was used to measure […]. 3) Data analysis • 3.1 Fluorescence signal values were obtained from the readings of each well • 3.2 Calculation of IC50 Concentration-response curve fitting and IC50 determination were performed using GraphPad Prism software with a four-parameter logistic regression model.
On the technique in general: ADP-Glo turns the ADP formed in a reaction into a luminescent signal.
A word on the IC50: it is the concentration at which inhibition is half-maximal. In turn, `O=C1c2ccc(NS(=O)(=O)CCO)cc2C2(CCCCC2)CN1c1cccc(N2CCOCC2)n1` [EX01, 2-Hydroxy-N-{2'-[6-(1,4-oxazinane-4-yl)pyridin-2-yl]-1'-oxo-2',3'-dihydro-1'H-spiro[cyclohexane-1,4'-isoquinoline]-6'-yl} ethanesulfonamide] showed an IC50 of 2030 nM.
With `Cc1cc(N2CC3(CCC4(CC4)CC3)c3cc(NS(=O)(=O)CCO)ccc3C2=O)nc(N2CCC(F)(F)CC2)n1` [EX02, N-{2-[2-(4,4-Difluorohexahydropyridin-1-yl)-6-methylpyrimidin-4-yl]-1-oxo-2,3-dihydro-1H-spiro[isoquinoline-4,6'-spiro[2.5]octane]-6-yl}-2-hydroxyethanesulfonamide], the IC50 is 38 nM.
`O=C1c2ccc(NS(=O)(=O)CCO)cc2C2(CCC3(CC3)CC2)CN1c1ccc(=O)n(C2CC(F)(F)C2)n1` [EX05, N-{2-[1-(3,3-Difluorocyclobutyl)-6-oxo-1,2-diazacyclohexanecarbonate-3-yl]-1-oxo-2,3-dihydro-1H-spiro[isoquinoline-4,6'-spiro[2.5]octane]-6-yl}-2-hydroxyethanesulfonamide]: the IC50 came to 8.2 nM.
With `Cc1cc(N2CC3(CCC(C)(C)CC3)c3cc(NS(=O)(=O)CCO)ccc3C2=O)nc(N2CCC(F)(F)CC2)n1` [EX03, N-{2'-[2-(4,4-difluorohexahydropyridin-1-yl)-6-methylpyrimidin-4-yl]-1,1-dimethyl-1'-oxo-2',3'-dihydro-1'H-spiro[cyclohexane-4,4'-isoquinoline]-6'-yl}-2-hydroxyethanesulfonamide] the figure was 44 nM.
`C[C@@H]1CN(c2cccc(N3CC4(CCC5(CC5)CC4)c4cc(NS(=O)(=O)CCO)ccc4C3=O)n2)CCO1` [EX04, 2-Hydroxy-N-(2-{6-[(2R)-2-methyl-1,4-oxazinane-4-yl]pyridin-2-yl}-1-oxo-2,3-dihydro-1H-spiro[isoquinoline-4,6'-spiro[2.5]octane]-6-yl)ethanesulfonamide] yielded an IC50 of 107 nM.

These data come from patent publication EP4624463A1, “SPIRO DERIVATIVE AS KIF18A INHIBITOR” (Insilico Medicine IP Limited, priority 2022, dated 2024).
